Here are results for one compound from article PMC7203245, “Lacosamide intake during pregnancy increases the incidence of foetal malformations and symptoms associated with schizophrenia in the offspring of mice” (Scientific Reports, 2020).

The structures appear in SMILES notation.

Data set [1] concerns adult male mice. In words: Motor activity and exploration in the open field. It is filed as in vivo. Conditions: high-dose LCM in utero; 3–5 month old mice; 5 minutes. The method, then: (§1) All trials were performed by an experimenter blind to the drug treatment.
Motor activity in the open field. To evaluate locomotor and exploratory activity, mice were placed in an open field for 5 minutes (38 x 21 x 15 cm: Cybertec S.A., Madrid, Spain). This apparatus consisted of a walled platform containing infrared (IR) emitters and sensors coupled to an actimeter, and the movement sensor was connected to a computer that recorded the number of times the mouse interrupted the IR beams/min. Exploratory activity, was determined through the time the mice interacted with two different objects in a 15 minute session.

The test system of data set [2] is adult male mice. The data set is described as follows: Pain assay (hot plate). It is filed as in vivo. Conditions: 120 mg/kg LCM during gestation; at 52 and 55 degrees relative to control. Here is the method: as §1
Pain assay. Pain behaviour was assessed in mice using the hot plate. For the hot-plate test, a glass cylinder (16 cm high, 16 cm in diameter) was used to constrain the mice to the heated surface of the plate. The plate surface was maintained at 50-55 ± 0.5 °C and the latency to commence paw-licking was measured, using a 30 s cut-off time for each of the tested temperatures. Each temperature was tested with 1h apart.

The subject of data set [3] is adult male mice. The data set is described as follows: Startle response/prepulse inhibition (PPI) test. Type of data set: in vivo. The method, then:
as §1
Startle response/prepulse inhibition (PPI) test. Animals were placed individually inside a startle chamber (Cibertec S.A., Madrid, Spain) and the startle response was measured using a piezoelectric accelerometer controlled by a computer. The digitized signal was averaged from 25–30 recordings. For training, the mouse was placed in the startle chamber for an acclimation period of 3 min. Baseline responses were averaged after the presentation of 20 sounds (125 dB, 100 ms long) and from this phase, the average response and peak latencies, and the peak response were determined. During PPI trials, the same 125-dB 100-ms burst was preceded (250 ms) by a prepulse stimulus of 85 dB, lasting for 50 ms. Trials including prepulse stimuli were randomly presented with normal startle stimuli, the final total being 25 of each, and the proportion of PPI was determined as [(1-prepulse/startle)*100]. The ambient background noise was 70 dB.

Data set [4] concerns adult male mice. The data set is described as follows: Tail suspension test. Type of data set: in vivo. The note with it: 5 minutes. Here is the method: as §1
Tail suspension test. Depression-like behaviour in mice was determined by measuring the time spent immobile in the tail suspension test. Mice were suspended above the floor by attaching the end of their tail to wire netting, and the time spent immobile during a 5 min test session was measured.

In data set [5] the test system is adult male mice. In words: Sociability test. It is filed as in vivo. Here is the method:
as §1
Sociability test. The social testing apparatus consisted of a rectangular arena (55 x 40 x 40 cm) in which a small, round wire cage (11 cm in height, with a bottom diameter of 9 cm, vertical bars 0.5 cm and horizontal bars spaced 1 cm apart) was placed in a corner, allowing nose contact between the bars but preventing fighting. The subject mouse was first placed in the arena for 5 minutes with the round wire cage empty. After that, a strange mouse was place in the round cage in […] and the subject was allowed to explore the entire social test box for 10 min. The time spent around the empty and occupied cage was measured with the aid of the camera fitted to the top of the box.

Data set [6] deals with adult male mice. In words: Object recognition memory. It is filed as in vivo. Conditions: 1 hour after the training session; LCM in utero. Here is the method: as §1
Object recognition memory. Mice were tested in a rectangular arena (55 x 40 x 40 cm) situated in a room with dim lighting and constant background noise. The object recognition protocol was described extensively elsewhere^2. Briefly, two equal objects were placed in the arena during a 15 minutes training phase and the animal’s memory of the original object was assessed by comparing the amount of time spent exploring the novel object against that for the familiar one in two sessions (of 10 minutes) performed 1 and 24h after training (for short-term and long-term memories [STM and LTM] respectively). The time spent exploring each object was recorded and the relative exploration of the novel object was expressed by a discrimination index [DI = (tnovel-tfamiliar)/(tnovel+tfamiliar)]. The criteria for exploration were based strictly on active exploration. Exploration of an object was defined as directing the nose toward the object at a distance of 1.5 cm and/or touching the object with the nose or vibrissae. Circling or sitting on the object were not considered exploratory behaviours.

The nature of data set [7]: LCM concentration in serum of dams by UHPLC-QTOF-MS. Type of data set: in vivo, mice. The note with it: female, mouse, intraperitoneal, 24 h post-injection, 2 dams in each dose group (10-120 mg/kg), no relationship with dose. The method, then:
Maternal weights were assessed at the end of the treatment periods. After 14.5 days of gestation (embryonic day14.5, E14.5), blood was extracted from the orbital sinus of the pregnant dams under anaesthesia (70 mg/kg Thiobarbital: Braun Medical S.A. Spain), as described previously[56] and sacrificed by neck dislocation immediately after. Blood samples were centrifuged immediately, and the serum was collected and stored at -80 °C for further chemical analysis.
Samples were extracted as described previously[25] with slight modifications. Briefly, embryos were rinsed with cold saline and ultrapure water, and their wet-weight was determined. They were then homogenized using a 150 T Ultrasonic homogenizer (Fisher Scientific, Spain) and 10 µL of an internal standard solution (IS: aqueous D^3-LCM IS, 5 mg mL^−1) was added to the biological samples (embryos or 50 µL of serum). […] The mixture was vortexed vigorously for 3 min and centrifuged at 13,000 g for 5 min. The supernatant was transferred to a new Eppendorf tube and evaporated to dryness in a stream of nitrogen gas. The residue was reconstituted with 50 µL of LC-MS Ultrapure water, vortexed for 20 s and centrifuged at 13,000 g for 5 min. The supernatant was transferred to a conic micro insert to be injected onto the UHPLC system.
MS spectra data were collected between m/z 50 and 1000, and MS/MS spectra were registered between 50-300 Da. […]

On to `COC[C@@H](NC(C)=O)C(=O)NCc1ccccc1` [LCM, R-2-acetamido-N-benzyl-3-methoxypropionamide], for which, in the data set on adult male mice [1], the “locomotor activity in open field” value was “enhanced locomotor activity”. Further, the “thermal nociception in the hot plate test” value in the data set on adult male mice [2] is “significant hyperalgesia”. Moreover, the “PPI of the acoustic startle response” value is 54.85 ± 4.27% in the data set on adult male mice [3] (40 mg/kg in utero) and 23.19 ± 7.9% in the data set with adult male mice [3] (120 mg/kg in utero). Further, the “acoustic startle reflex parameters (peak latencies, maximum peak response)” value in the data set with adult male mice [3] (LCM administration during gestation) is “did not modify any parameters”. The “immobility time (tail suspension test)” value in the data set with adult male mice [4] (40 mg/kg in utero) is recorded as 82.58 ± 7.38 s; in the data set with adult male mice [4] (120 mg/kg in utero) it was 109.0 ± 7.69 s. The “social interaction with a strange mouse (sniffing time)” value with adult male mice [5] (40 mg/kg in utero) worked out at 183.4 ± 11.01 s; in the data set on adult male mice [5] (120 mg/kg in utero), 172.0 ± 10.78 s. Moreover, the “short-term memory in object recognition” value in the data set on adult male mice [6] was “no effects”. In data set [7], the concentration at 24 h is 5 to 133 ng/mL.
